Test results published in publication PMC10626537, “Pharmacokinetic and pharmacodynamic studies of nicotine in rat brain: a simultaneous investigation of nicotine metabolites and the release of neurotransmitters in vivo” (Frontiers in Chemistry, 2023).
Read-outs that look alike come from different tables or passages of the source.

Assays:
[1] = Online brain microdialysis UHPLC-HRMS/MS pharmacokinetics of Nic and its main metabolites in rat NAc after single Nic injection; assay type: in vivo; design: AUC0–360 min: unit not given here; conditions: for Cmax / MRT / Tmax / half-life: rat, brain microdialysate (NAc), ip; for half-life: read-out: t 1/2z
Protocol: (§1) To inhibit the main Nic metabolic enzyme CYP2B in the brain, rats received intraperitoneal injections of proadifen (50 mg kg^−1·day^−1, 4 d) ([Song et al., 2012]). Control animals were pretreated with saline using the same protocol. All the rats were sacrificed by cardiac perfusion after microdialysis sampling. The brain tissues were separated and divided into four parts (cerebrum, cerebellum, diencephalon, and brainstem). The CYP2B activity in different rat brain regions was determined following the instructions of the GENMED CYP2B1 activity fluorescence quantitative detection kit (GENMED SCIENTIFICS INC. U.S.A, GMS18019.1).
(§2) The mass spectrometer was operated in positive ionization mode. […] The normalized collision energy was set at 10%.

[2] = tested on: monoamine neurotransmitters in rat striatum; conditions: rat striatum dialysate; after 3 h of Nic exposure (2 mg kg^-1 ip)
Text: Anesthesia was induced with 3% isoflurane in an induction chamber before surgical procedures and was placed in a stereotaxic frame equipped with a rat ear and bite bar. Rat was maintained under anesthesia with 1%–2% isoflurane during operation procedures. And the cranium above the ventral striatum (coordinates relative to bregma: anterior/posterior (AP), +1.2 mm; medial/lateral (ML), −2.4 mm; dorsal/ventral (DV), −6.0 mm) or NAc (coordinates relative to bregma: anterior/posterior (AP), +1.7 mm; medial/lateral (ML), −1.5 mm; dorsal/ventral (DV), −6.5 mm) was exposed to implant the probe guide-cannula (CMA/12), two screws were implanted into the skull to serve as an anchor and dental cement was used as an adhesive to fixed the probe guide-cannula. To avoid the interference of neurotransmitter changes due to physical stimulation of pain receptors during intraperitoneal injection of Nic, Nic was injected with the aid of an administration catheter (Instech, BTPU-040, 6.35 × 10.16 mm, America), which was implanted in the abdomen, the other end of the catheter was passed under the skin and sent to the back and sealed with a plug (Instech, PNP3M-F22R, America). The rats were housed individually and allowed to recover from surgery for at least 24 h.
For in vivo microdialysis sampling, the probe (CMA/12 Elite, membrane parameters: polyarylethersulfone material; 2 mm length; φ 0.5 mm; 20 kDa cut-off) was inserted into the brain through the cannula. After implantation, the probe was perfused with Ringer’s solution by the syringe pump (CMA/402, piston propulsion speed: 2.4 μm·min^-1–1.2 mm min^-1; velocity range: 0.1 μL·min^-1–20 μL min^-1; precision: −1.5%-1.5%) at fixed flow rates (1.5 μL min^-1), and the dialysates were analyzed under the optimized UHPLC-HRMS/MS condition directly. Intraperitoneal administration of 2 mg kg^-1 Nic was performed until stable levels of neurotransmitters were obtained, which was defined as the mean value of neurotransmitter concentrations in six consecutive samples varied by no more than 10%.
UHPLC-HRMS/MS system was performed on Dionex Ultimate 3000 UHPLC equipped with a Q-Exactive mass spectrometer and electrospray ionization (ESI) interface (Thermo Fisher Scientific, Germany). Chromatographic separation was achieved by the pentafluorophenyl phase column (Discovery® HS F5-3 column, 2.1 × 150 mm, 3 μm) with linear binary gradient elution, at a flow rate of 0.5 mL min^-1. Eluent A was 10 mM ammonium acetate with FA (0.1%, v/v) dissolved in water, and eluent B was acetonitrile with 0.1% FA (v/v). […] From 3 to 6 min, a linear gradient was applied from 45% to 75% B and then return linearly to the initial condition at 9 min and the column was allowed to equilibrate for 1 min.
The mass spectrometer was operated in positive ionization mode. The optimized mass spectrometer parameters were as follows: a resolution of 35000; automatic gain control (AGC) target was 2.0 e^5; maximum injection time (IT) was 100 m; 3.5 kV for spray voltage; ion transfer tube temperature, 350°C; S-Lens RF level, 60%. The isolation window of the precursor ions was done using a quadrupole with an isolation window of m/z 1. The normalized collision energy was set at 10%. Analytes were determined by a parallel reaction monitoring (PRM) method by acquiring two transitions for each compound. The most specific transition was selected for the quantitative purpose. All data were gathered and analyzed using Xcalibur 2.2 software (Thermo Fisher Scientific, Germany). […]

[3] = tested on: release of neurotransmitters in the NAc; assay: Microdialysis release of neurotransmitters in rat NAc after Nic exposure under regulation of Nic metabolism; assay type: in vivo; conditions: for peak concentration of DOPAC / peak concentration of HVA: after Nic stimulation (2 mg kg^-1 ip)
Protocol: as §1, §2

CYP2B1 = biological target: T1, CYP2B1 (Rattus norvegicus, UniProt P00176); assay: CYP2B1 activity in rat brain tissue after proadifen pretreatment (GENMED CYP2B1 activity fluorescence quantitative detection kit); assay type: in vivo; conditions: 4 days
T1 construct: The brain tissues were separated and divided into four parts (cerebrum, cerebellum, diencephalon, and brainstem); from tissue; host or cells: brain tissue (cerebrum, cerebellum, diencephalon, brainstem) of male Sprague Dawley rats
T1 sequence (P00176 1-491): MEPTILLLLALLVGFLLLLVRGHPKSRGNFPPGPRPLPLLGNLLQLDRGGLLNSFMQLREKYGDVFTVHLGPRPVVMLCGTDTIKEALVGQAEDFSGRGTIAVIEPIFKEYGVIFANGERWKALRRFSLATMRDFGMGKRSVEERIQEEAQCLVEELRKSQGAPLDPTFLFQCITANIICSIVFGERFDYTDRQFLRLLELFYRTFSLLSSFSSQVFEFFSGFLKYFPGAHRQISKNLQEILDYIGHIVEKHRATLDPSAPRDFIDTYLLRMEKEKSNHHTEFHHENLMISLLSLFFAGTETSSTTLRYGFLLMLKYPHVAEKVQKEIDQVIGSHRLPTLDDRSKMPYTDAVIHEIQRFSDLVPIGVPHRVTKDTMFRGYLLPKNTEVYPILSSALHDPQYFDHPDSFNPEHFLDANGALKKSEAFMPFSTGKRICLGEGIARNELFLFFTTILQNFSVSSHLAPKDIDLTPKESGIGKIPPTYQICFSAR
Protocol: as §1

[4] = rat NAc, Nic 2 mg kg^-1 ip, Prodifine (proadifen) pretreated
[5] = rat NAc, Nic 2 mg kg^-1 ip, saline-pretreated
[6] = 2 mg/kg, rat NAc, Nic 2 mg kg^-1 ip, Prodifine (proadifen) pretreated
[7] = 2 mg/kg, rat NAc, Nic 2 mg kg^-1 ip, saline-pretreated
[8] = after Nic exposure, proadifen pretreatment group
[9] = Nic 2 mg kg^-1 ip, proadifen vs saline pretreatment

SMILES | CL/F [1, 4] | CL/F [1, 5] | Cmax [1, 6] | MRT [1, 6] | Tmax [1, 6] | half-life [1, 6] | Cmax [1, 7] | MRT [1, 7] | Tmax [1, 7] | half-life [1, 7] | also measured
CN1C(=O)CC[C@H]1c1cccnc1 [Cot, (−) cotinine] | 7.0 mL/min | 9.0 mL/min | 20.3 ng/mL | 3.12 h | 2 h | 2.19 h | 16.7 ng/mL | 3.11 h | 2.67 h | 1.74 h | –
C[N@+]1([O-])CCC[C@H]1c1cccnc1 [NNO, (1′S, 2′S)-nicotine-1′-oxide] | 3.2 mL/min | 5.0 mL/min | 5.2 ng/mL | 1.57 h | 0.667 h | 0.895 h | 15.1 ng/mL | 2.39 h | 0.5 h | 0.802 h | AUC0–360 min ([1]; rat NAc dialysate, Nic 2 mg kg^-1 ip single injection, Prodifine (proadifen 50 mg kg^-1 d^-1 ip, 4 days) pretreated, two-compartmental model): 0.6; decrease of C max (level) of Nic metabolite after CYP2B1 inhibition compared with control rats ([1]; rat brain, Nic 2 mg kg^-1 ip, proadifen-pretreated vs saline control): 65.6%
CN1CCC[C@H]1c1cccnc1 [Nic, (−) nicotine] | 14.0 mL/min | 25.0 mL/min | 1220 ng/mL | 1.89 h | 0.5 h | 1.28 h | 968 ng/mL | 1.43 h | 0.5 h | 2.15 h | average level of 5-HIAA [2]: 234.4 µg/L; average level of 5-HT [2]: 45.9 µg/L; average level of DA [2]: 25.1 µg/L; average level of DOPAC [2]: 99.2 µg/L; average level of HVA [2]: 169.8 µg/L; time by which Nic was almost completely cleared from the rat brain ([1]; Nic 2 mg kg^-1 ip): ≤ 360 min; brain C max of Nic in proadifen group relative to saline group ([1]; rat brain, Nic 2 mg kg^-1 ip, proadifen-pretreated vs saline): 1.26 times; Cmax ([1]; 2 mg kg^-1, rat NAc, Nic 2 mg kg^-1 ip, Prodifine (proadifen) pretreated): 1220 ng/mL; C max of 5-HIAA [3, 8]: ~240 % of baseline; C max of 5-HT [3, 8]: ~390 % of baseline; peak level of Ach relative to baseline ([3]; after Nic injection): almost doubled; peak concentration of DOPAC ([3]; proadifen pretreated group): ~340 % of the baseline; peak concentration of HVA ([3]; proadifen pretreated group): ~330 % of the baseline; peak concentration of DOPAC ([3]; saline group): ~290 % of the baseline; peak concentration of HVA ([3]; saline group): ~270 % of the baseline
CCCC(C(=O)OCCN(CC)CC)(c1ccccc1)c1ccccc1 [proadifen] | – | – | – | – | – | – | – | – | – | – | decrease of whole brain CYP2B1 activity on average (CYP2B1; proadifen 50 mg kg^-1 d^-1 ip, vs saline-pretreated rats): 36.9%; effect on brain CYP2B1 activity (CYP2B1; proadifen 50 mg·kg^−1·d^−1 ip): significant inhibition; effect of proadifen inhibition on Nic-induced peak level of Ach ([3]; Nic 2 mg kg^-1 ip): did not further increased it; average level of GABA in proadifen group relative to saline group [3, 9]: 2.7 times; average level of serotonin under inhibition of nicotine metabolism relative to control [3, 9]: 1.2 times
